The results in this text go back to patent US20240301409A1, “Chemically Modified Small Activating RNA” (RACTIGEN THERAPEUTICS, priority 2021, published 2024).

Like-named read-outs stand apart in the source and are kept apart here. Oligonucleotides are written 5' to 3', each unit as a sugar letter and its base; * is a phosphorothioate linkage, no mark a phosphodiester; rarer units and linkages stand in square brackets, end groups in braces. Plain capitals give the bases only. r = 2'-OH (RNA); f = 2'-fluoro

In data set [1] the target is T1, RNase A (Bos taurus, UniProt P61823).
T1 sequence (P61823 27-150): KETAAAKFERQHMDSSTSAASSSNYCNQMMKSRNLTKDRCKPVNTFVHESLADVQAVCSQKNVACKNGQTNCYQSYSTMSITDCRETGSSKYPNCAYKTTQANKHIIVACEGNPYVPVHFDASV

Data set [2] concerns Rag1-40 target sequence in the 3′ UTR of firefly luciferase, COS-1 cells.
Data set [3] has the same test system. The data set is described as follows: Analysis of off-target effects (pOff-Target dual luciferase reporter in COS-1 cells). To be noted: lysed 48 hours after transfection, luciferase activity. For orientation: A reporter such as luciferase makes a cellular process visible.

For “Rag1-40-10: saRNA duplex: sense fCfCAACUCAUUCUCCAAGfUfC (SEQ ID NO 14); antisense fUACUfUGGAGAAfUGAGUfUGGfCA (SEQ ID NO 7) (sense CCAACUCAUUCUCCAAGUC; antisense UACUUGGAGAAUGAGUUGGCA; 2'-F modifications; modified_base (1)..(19) (1,2,18,19)=2′-fluoro; modified_base (1)..(20) (1,5,12,17,20)=2′-fluoro)”, in data set [1], the “time to complete degradation” value was at most 24 h. Also, in data set [2], the “off-target effect compared to unmodified Rag1-40, in words” value was “completely inhibited”.
Taken in the same sequence, the figures for “Rag1-40-12: saRNA duplex: sense fCfCAACUCAUUCUCCAAGfUfC (SEQ ID NO 14); antisense fUACUfUGGAGAAfUGAGUfUGG*fC*A (SEQ ID NO 9) (sense CCAACUCAUUCUCCAAGUC; antisense UACUUGGAGAAUGAGUUGGCA; 2'-F and phosphorothioate modifications; modified_base (1)..(19) (1,2,18,19)=2′-fluoro; modified_base (1)..(20) (1,5,12,17,20)=2′-fluoro; modified_base (19)..(21) (19,20,21)=phosphorothioate (PS) backbone modification)” were at most 24 h and “mitigated or similar off-target effects”.
Taken in the same sequence, the figures for “Rag1-40-18: saRNA duplex: sense mCmCAACUCAUUCUCCAAG*U*C (SEQ ID NO 15); antisense fUACUfUGGAGAAfUGAGUfUGGfCA (SEQ ID NO 7) (sense CCAACUCAUUCUCCAAGUC; antisense UACUUGGAGAAUGAGUUGGCA; 2'-OMe, 2'-F, phosphorothioate modifications; modified_base (1)..(2) (1,2)=2′-O-methyl(2′-OMe); modified_base (17)..(19) (17,18,19)=phosphorothioate (PS) backbone modification; modified_base (1)..(20) (1,5,12,17,20)=2′-fluoro)” were at most 24 h and “mitigated or similar off-target effects”.
Taken in the same sequence, the figures for “Rag1-40-20: saRNA duplex: sense mCmCAACUCAUUCUCCAAG*U*C (SEQ ID NO 15); antisense fUACUfUGGAGAAfUGAGUfUGG*fC*A (SEQ ID NO 9) (sense CCAACUCAUUCUCCAAGUC; antisense UACUUGGAGAAUGAGUUGGCA; 2'-OMe, 2'-F, phosphorothioate modifications; modified_base (1)..(2) (1,2)=2′-O-methyl(2′-OMe); modified_base (17)..(19) (17,18,19)=phosphorothioate (PS) backbone modification; modified_base (1)..(20) (1,5,12,17,20)=2′-fluoro; modified_base (19)..(21) (19,20,21)=phosphorothioate (PS) backbone modification)” were at most 24 h and “mitigated or similar off-target effects”.
Regarding “Rag1-40-21: saRNA duplex: sense mCmCAACUCAUUCUCCAAG*U*C (SEQ ID NO 15); antisense UACUfUGGAGAAfUGAGUfUGG*fC*A (SEQ ID NO 10) (sense CCAACUCAUUCUCCAAGUC; antisense UACUUGGAGAAUGAGUUGGCA; 2'-OMe, 2'-F, phosphorothioates; modified_base (1)..(2) (1,2)=2′-O-methyl(2′-OMe); modified_base (17)..(19) (17,18,19)=phosphorothioate (PS) backbone modification; modified_base (5)..(20) (5,12,17,20)=2′-fluoro; modified_base (19)..(21) (19,20,21)=phosphorothioate (PS) backbone modification)”, the “off-target effect compared to unmodified Rag1-40, in words” value in data set [3] is reported as “mitigated or similar off-target effects”.
With “Rag1-40-22: saRNA duplex: sense mCmCAACUCAUUCUCCAAG*U*C (SEQ ID NO 15); antisense fU*A*fCfUfUGGAGAAfUGAGfUfUGG*fC*A (SEQ ID NO 11) (sense CCAACUCAUUCUCCAAGUC; antisense UACUUGGAGAAUGAGUUGGCA; 2'-OMe, 2'-F, phosphorothioate modifications; modified_base (1)..(2) (1,2)=2′-O-methyl(2′-OMe); modified_base (17)..(19) (17,18,19)=phosphorothioate (PS) backbone modification; modified_base (1)..(21) (1,2,3,19,20,21)=phosphorothioate (PS) backbone modification; modified_base (1)..(20) (1,3,4,5,12,16,17,20)=2′-fluoro)”, in data set [1], the “degradation of duplex at 96 hours” value is “little or no signs of degradation”. Also, in data set [2], the “off-target effect compared to unmodified Rag1-40, in words” value is “completely inhibited”.
With “Rag1-40-23: saRNA duplex: sense mCmCAACUCAUUCUCCAAG*U*C (SEQ ID NO 15); antisense U*A*fCfUfUGGAGAAfUGAGfUfUGG*fC*A (SEQ ID NO 12) (sense CCAACUCAUUCUCCAAGUC; antisense UACUUGGAGAAUGAGUUGGCA; 2'-OMe, 2'-F, phosphorothioate modifications; modified_base (1)..(2) (1,2)=2′-O-methyl(2′-OMe); modified_base (17)..(19) (17,18,19)=phosphorothioate (PS) backbone modification; modified_base (2)..(21) (2,3,19,20,21)=phosphorothioate (PS) backbone modification; modified_base (3)..(20) (3,4,5,12,16,17,20)=2′-fluoro)”, the “degradation of duplex at 96 hours” value in data set [1] is reported as “little or no signs of degradation”. The “off-target effect compared to unmodified Rag1-40, in words” value in data set [2] is on record as “mitigated or similar off-target effects”.
For “Rag1-40-26: saRNA duplex: sense fCfCAACUCAUUCUCCAAG*U*C (SEQ ID NO 16); antisense fUACUfUGGAGAAfUGAGUfUGGfCA (SEQ ID NO 7) (sense fCfCrArArCrUrCrArUrUrCrUrCrCrArArG*rU*rC; antisense fUrArCrUfUrGrGrArGrArAfUrGrArGrUfUrGrGfCrA)”, in data set [1], the “time to complete degradation” value is at most 24 h. Moreover, the “off-target effect compared to unmodified Rag1-40, in words” value in data set [2] is “increased off-target effects”.
Taken in the same sequence, the figures for “Rag1-40-28: saRNA duplex: sense fCfCAACUCAUUCUCCAAG*U*C (SEQ ID NO 16); antisense fUACUfUGGAGAAfUGAGUfUGG*fC*A (SEQ ID NO 9) (sense fCfCrArArCrUrCrArUrUrCrUrCrCrArArG*rU*rC; antisense fUrArCrUfUrGrGrArGrArAfUrGrArGrUfUrGrG*fC*rA)” were at most 24 h and “mitigated or similar off-target effects”.
In the case of “Rag1-40-30: saRNA duplex: sense fCfCAACUCAUUCUCCAAG*U*C (SEQ ID NO 16); antisense fU*A*fCfUfUGGAGAAfUGAGfUfUGG*fC*A (SEQ ID NO 11) (sense fCfCrArArCrUrCrArUrUrCrUrCrCrArArG*rU*rC; antisense fU*rA*fCfUfUrGrGrArGrArAfUrGrArGfUfUrGrG*fC*rA)”, the “degradation of duplex at 96 hours” value in data set [1] was “little or no signs of degradation”. The “off-target effect compared to unmodified Rag1-40, in words” value in data set [2] was “mitigated or similar off-target effects”.
